Reference: US20190135747A1, “INDOLE AND INDAZOLE CYANOCINNAMATE COMPOUNDS AND THERAPEUTIC USES THEREOF” (Regents of the University of Minnesota, priority 2016, published 2019)

Tests used:
Format in all cases: cell-based
MCT4 = target: T1, MCT4 (Homo sapiens, UniProt O15427); assay: MCT lactate inhibition assay, MCT4 in MDA-MB-231; conditions: MDA-MB-231 cells
T1 construct: Cell line MDA-MB-231 (MCT4 expressing human triple negative breast cancer cell line); endogenous in cells; host or cells: MDA-MB-231 human triple negative breast cancer cells
T1 sequence (O15427 2-465 limits assumed): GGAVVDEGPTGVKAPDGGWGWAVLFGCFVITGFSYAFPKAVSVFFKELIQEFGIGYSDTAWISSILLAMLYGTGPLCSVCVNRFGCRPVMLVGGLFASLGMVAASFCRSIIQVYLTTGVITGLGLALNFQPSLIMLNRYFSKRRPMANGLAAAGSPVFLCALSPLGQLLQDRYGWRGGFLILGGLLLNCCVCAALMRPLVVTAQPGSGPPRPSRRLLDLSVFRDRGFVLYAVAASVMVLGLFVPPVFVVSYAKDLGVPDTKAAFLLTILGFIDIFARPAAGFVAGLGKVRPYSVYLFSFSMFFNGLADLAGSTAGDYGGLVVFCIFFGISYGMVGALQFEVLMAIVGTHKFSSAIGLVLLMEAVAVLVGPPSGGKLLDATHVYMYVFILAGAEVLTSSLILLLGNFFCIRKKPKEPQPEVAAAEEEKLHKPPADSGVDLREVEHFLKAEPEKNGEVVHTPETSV
T1 sequence (P35613 140-385 partner limits assumed): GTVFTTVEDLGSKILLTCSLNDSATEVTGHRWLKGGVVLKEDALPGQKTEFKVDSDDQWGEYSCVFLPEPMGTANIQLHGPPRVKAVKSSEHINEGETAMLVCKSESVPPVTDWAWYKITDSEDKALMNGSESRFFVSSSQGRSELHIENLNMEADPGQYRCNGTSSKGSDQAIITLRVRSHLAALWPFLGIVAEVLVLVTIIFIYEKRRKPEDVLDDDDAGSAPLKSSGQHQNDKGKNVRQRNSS
Procedure: (§1) Cell line MDA-MB-231 (MCT4 expressing human triple negative breast cancer cell line), cell line MCF-7 (MCT1 expressing estrogen receptor positive human breast cancer cell line), and cell line 4T1 (MCT1 expressing metastatic murine breast cancer cell line) were used for testing the in vitro cytotoxicity of compounds 1-d, 2, and 3 using the MTT assay available from ThermoFisher Scientific. In addition, Compounds 1-d, 2, and 3 were also evaluated for MCT1 inhibition activity in RBE4 (MCT1 expressing rat brain endothelial 4 cell line) and MCT4 inhibition activity in MDA-MB-231 cell lines by measuring the IC50 values using the MCT lactate inhibition assays (Gurrapu S, Jonnalagadda S K, Alam M A, Nelson G L, Sneve M G, Drewes L R, Venkatram R. Mereddy. Monocarboxylate transporter 1 inhibitors as potential anti-cancer agents. ACS. Med. Chem. Lett., 2015, 6, 558-561.).

MCT1 = target: T2, MCT1 (Rattus norvegicus, UniProt P53987); assay: MCT lactate inhibition assay, MCT1 in RBE4; conditions: RBE4 rat brain endothelial cells
T2 construct: endogenous in cells; host or cells: RBE4 rat brain endothelial cells
T2 sequence (P53987 1-494): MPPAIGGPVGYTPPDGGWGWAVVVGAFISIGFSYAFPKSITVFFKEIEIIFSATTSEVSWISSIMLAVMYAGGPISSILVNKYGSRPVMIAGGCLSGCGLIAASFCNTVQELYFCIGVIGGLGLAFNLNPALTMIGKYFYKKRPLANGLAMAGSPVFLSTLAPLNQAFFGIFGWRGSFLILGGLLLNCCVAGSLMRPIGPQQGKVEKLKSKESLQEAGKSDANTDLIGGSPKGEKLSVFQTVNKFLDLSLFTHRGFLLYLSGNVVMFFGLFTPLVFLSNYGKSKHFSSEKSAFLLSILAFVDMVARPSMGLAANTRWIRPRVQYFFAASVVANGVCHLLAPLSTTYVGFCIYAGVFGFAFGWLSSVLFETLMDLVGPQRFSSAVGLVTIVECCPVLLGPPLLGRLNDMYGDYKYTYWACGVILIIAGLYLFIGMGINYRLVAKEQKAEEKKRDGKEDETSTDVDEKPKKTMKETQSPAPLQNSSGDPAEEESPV
T2 sequence (P26453 140-388 partner limits assumed): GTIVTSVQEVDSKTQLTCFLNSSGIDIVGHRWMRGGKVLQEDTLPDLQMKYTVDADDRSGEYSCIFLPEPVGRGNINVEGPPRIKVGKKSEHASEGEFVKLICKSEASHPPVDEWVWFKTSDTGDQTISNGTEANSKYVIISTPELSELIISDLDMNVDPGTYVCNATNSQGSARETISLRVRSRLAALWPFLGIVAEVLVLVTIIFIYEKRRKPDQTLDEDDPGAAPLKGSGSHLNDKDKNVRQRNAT
Procedure: as §1

[1] = system: MCF-7 (MCT1 expressing estrogen receptor positive human breast cancer cell line); assay: MTT in vitro cytotoxicity assay, MCF-7; conditions: MCF7, MCF-7 cells
Procedure: as §1

[2] = system: MDA-MB-231 (MCT4 expressing human triple negative breast cancer cell line); assay: MTT in vitro cytotoxicity assay, MDA-MB-231; conditions: MDA-MB-231 cells
Procedure: as §1

[3] = system: 4T1 (MCT1 expressing metastatic murine breast cancer cell line); assay: MTT in vitro cytotoxicity assay, 4T1; conditions: Mus musculus, 4T1 cells
Procedure: as §1

## CN(C)c1ccc(-n2cc(/C=C(\C#N)C(=O)O)c3ccccc32)cc1 [Compound 1-d]
MCT4
  IC50: 20 ± 10 nM
MCT1
  IC50: 70 ± 20 nM
[1]
  IC50: > 250 µM
[2]
  IC50: > 250 µM
[3]
  IC50: 65.4 ± 4.26 µM

## N#C/C(=C\c1cn(-c2ccc(NC(=O)Nc3ccc(Cl)c(C(F)(F)F)c3)cc2)c2ccccc12)C(=O)O [Compound 2]
MCT4
  IC50: 570 ± 50 nM
MCT1
  IC50: 470 ± 50 nM
[1]
  IC50: 41.6 ± 20.8 µM
[2]
  IC50: 88.1 ± 17.2 µM
[3]
  IC50: 76.5 ± 4.86 µM

## N#C/C(=C\c1cn(-c2ccc(NC(=O)c3ccc(NC(=O)Nc4ccc(Cl)c(C(F)(F)F)c4)cc3)cc2)c2ccccc12)C(=O)O [Compound 3]
MCT4
  IC50: 140 ± 40 nM
MCT1
  IC50: 110 nM
[1]
  IC50: > 250 µM
[2]
  IC50: > 250 µM
[3]
  IC50: > 250 µM
